{"source": "patent US8173428B2", "about": "“LNA oligonucleotides and the treatment of cancer” (Santaris Pharma A/S, priority 2004, dated 2012)", "system": "15PC3 cells", "test": "Caspase 3/7 activity (apoptosis) in transfected 15PC3 cells", "format": "cell-based, human", "experimental": "Culturing of cells: 15PC3 was cultured in DMEM (Sigma) containing 10% fetal bovine serum, Glutamax I and gentamicin at 37° C., 95% humidity and 5% CO2. The cervical carcinoma cell line HeLa were cultured in MEM (Sigma) containing 10% fetal bovine serum, Glutamax I and gentamicin at 37° C., 95% humidity and 5% CO2. When reaching 60-70% confluency, the cells were transfected using Lipofectamine 2000 (5 μg/ml).\n15PC3 cells were seeded to a density of 10000 cells per well in white 96-well plates (Nunc 136101) in DMEM the day prior to transfection. The next day cells were washed once in prewarmed OptiMEM followed by addition of 72 μl OptiMEM containing 5 μg/ml Lipofectamine-2000 (In vitrogen). Cells were incubated for 7 min before adding 18 μl oligonucleotides diluted in OptiMEM. The final oligonucleotide concentration ranged from 0.2 nM to 100 nM. After 4 hours of treatment, cells were washed in OptiMEM and 100 μl DMEM containing serum was added. Following oligonucleotide treatment, cells were allowed to recover for the period indicated before they were removed from the CO2 incubator and equilibrated to room temperature for 15 min. 100 μl of the highly sensitive Caspase 3/7-Glo™ Reagent (Promega) was added directly to the cells, and the plates were incubated for 20 min. Luminescence (luciferase activity) was recorded in a Luminoskan Ascent instrument (Thermo Labsystems). The luciferase activity is measured as Relative Light Units per seconds (RLU/s). The data was analysed using the Ascent software 2.4.2. Graphs of fold induction relative to mock were generated using MS Excel.\nStaurosporine, Camptothecine or Taxol induced cells served as positive controls (see FIGS. 3, 6A and Table 4 plus Example 21).", "note": "Oligonucleotides are written 5' to 3', each unit as a sugar letter and its base; * is a phosphorothioate linkage, no mark a phosphodiester; rarer units and linkages stand in square brackets, end groups in braces. Plain capitals give the bases only. l = locked nucleic acid (LNA); [5mC] = 5-methylcytosine; d = 2'-deoxy (DNA)", "data": [{"substance": "5′-^MeCsTs^MeCsAsastscscsastsgsgs^MeCsAsGsc-3′ (l[5mC]*lT*l[5mC]*lA*dA*dT*dC*dC*dA*dT*dG*dG*l[5mC]*lA*lG*dC) [SEQ ID NO. 2]", "values": [{"measurement": "Apoptosis At 5 nM, 24 hours", "setting": "5 nM, 24 hours (Table 7, FIG. 3)", "result": "3.5-fold"}, {"measurement": "Max Apoptosis", "setting": "25 nM, 24 hours (Table 7)", "result": "6.5-fold"}, {"measurement": "Maximum Induction Fold-induction of apoptosis, Caspase 3/7 assay", "setting": "25 nM, 48 hours, 15PC3 cells", "result": "6.9 x (25 nM, 48 hours)"}, {"measurement": "Fold induction of apoptosis, Caspase 3/7 assay", "setting": "24 hours, 5 nM, 15PC3 cells, relative to mock", "result": 3.5, "unit": "x"}]}]}
